Patent US8003655B2, “Substituted sulphoximines as TIE2 inhibitors and salts thereof, pharmaceutical compositions comprising same, methods of preparing same and uses of same” (Bayer Schering Pharma AG, priority 2006, dated 2011)

Tests used:
Format in all cases: biochemical
Tie2 = target: T1, Tie2 (Homo sapiens, UniProt Q02763); assay: Tie2-Kinase HTRF-Assay without kinase preactivation (assay 2); conditions: 10 μM ATP, pIC50 = −log IC50 in molar concentration, read-out: Tie 2 activity (assay 2)
T1 construct: A recombinant fusion protein of GST and the intracellular domains of Tie2; GST; made in house; host or cells: insect cells (Hi-5)
Description: Tie2-inhibitory activity of compounds of the present invention was quantified employing two Tie2 HTRF assay as described in the following paragraphs.
A recombinant fusion protein of GST and the intracellular domains of Tie2, expressed in insect cells (Hi-5) and purified by Glutathion-Sepharose affinity chromatography was used as kinase. Alternatively, commercially available GST-Tie2-fusion protein (Upstate Biotechnology, Dundee, Scotland) can be used as substrate for the kinase reaction the biotinylated peptide biotin-Ahx-EPKDDAYPLYSDFG (C-terminus in amid form) was used which can be purchased e.g. from the company Biosynthan GmbH (Berlin-Buch, Germany). Detection of phosphorylated product is achieved specifically by a trimeric detection complex consisting of the phosphorylated substrate, streptavidin-XLent (SA-XLent) which binds to biotin, and Europium Cryptate-labeled anti-phosphotyrosine antibody PT66 which binds to phosphorylated tyrosine.
Tie2 (3.5 ng/measurement point) was incubated for 60 min at 22° C. in the presence of 10 μM adenosine-tri-phosphate (ATP) and 1 μM substrate peptide (biotin-Ahx-EPKDDAYPLYSDFG-NH2) with different concentrations of test compounds (0 μM and concentrations in the range 0.001-20 μM) in 5 μl assay buffer [50 mM Hepes/NaOH pH 7, 10 mM MgCl2, 0.5 mM MnCl2, 1.0 mM dithiothreitol, 0.01% NP40, protease inhibitor mixture (“Complete w/o EDTA” from Roche, 1 tablet per 2.5 ml), 1% (v/v) dimethylsulfoxide]. The reaction was stopped by the addition of 5 μl of an aqueous buffer (25 mM Hepes/NaOH pH 7.5, 0.28% (w/v) bovine serum albumin) containing EDTA (90 mM) and the HTRF (Homogeneous Time Resolved Fluorescence) detection reagents streptavidine-XLent (0.2 μM, from Cis Biointernational, Marcoule, France) and PT66-Eu-Chelate (0.3 ng/μl; a europium-chelate labelled anti-phospho-tyrosine antibody from Perkin Elmer).
(§1) The resulting mixture was incubated 1 h at 22° C. to allow the binding of the biotinylated phosphorylated peptide to the streptavidine-XLent and the PT66-Eu-Chelate. Subsequently the amount of phosphorylated substrate peptide was evaluated by measurement of the resonance energy transfer from the PT66-Eu-Chelate to the streptavidine-XLent. Therefore, the fluorescence emissions at 620 nm and 665 nm after excitation at 350 nm was measured in a HTRF reader, e.g. a Rubystar (BMG Labtechnologies, Offenburg, Germany) or a Viewlux (Perkin-Elmer). The ratio of the emissions at 665 nm and at […] was taken as the measure for the amount of phosphorylated substrate peptide. The data were normalised (enzyme reaction without inhibitor=0% inhibition, all other assay components but no enzyme=100% inhibition) and IC50 values were calculated by a 4 parameter fit using an inhouse software.

preactivated Tie2 = target: T2, preactivated Tie2 (Homo sapiens, UniProt Q02763); assay: Tie2-Kinase HTRF-Assay with kinase preactivation (assay 3); conditions: 10 μM ATP, pIC50 = −log IC50 in molar concentration, read-out: Tie 2 activity (assay 3)
T2 construct: A recombinant fusion protein of GST and the intracellular domains of Tie2; GST; made in house; host or cells: insect cells (Hi-5)
Procedure: Assay 3: Tie2-Kinase HTRF-Assay with Kinase Preactivation
A recombinant fusion protein of GST and the intracellular domains of Tie2, expressed in insect cells (Hi-5) and purified by Glutathion-Sepharose affinity chromatography was used as kinase. As substrate for the kinase reaction the biotinylated peptide biotin-Ahx-EPKDDAYPLYSDFG (C-terminus in amid form) was used which can be purchased e.g. from the company Biosynthan GmbH (Berlin-Buch, Germany).
For activation, Tie2 was incubated at a conc. 12.5 ng/μl of for 20 min at 22° C. in the presence of 250 μM adenosine-tri-phosphate (ATP) in assay buffer [50 mM Hepes/NaOH pH 7, 10 mM MgCl2, 0.5 mM MnCl2, 1.0 mM dithiothreitol, 0.01% NP40, protease inhibitor mixture (“Complete w/o EDTA” from Roche, 1 tablet per 2.5 ml)].
For the subsequent kinase reaction, the preactivated Tie2 (0.5 ng/measurement point) was incubated for 20 min at 22° C. in the presence of 10 μM adenosine-tri-phosphate (ATP) and 1 μM substrate peptide (biotin-Ahx-EPKDDAYPLYSDFG-NH2) with different concentrations of test compounds (0 μM and concentrations in the range 0.001-20 μM) in 5 μl assay buffer [50 mM Hepes/NaOH pH 7, 10 mM MgCl2, 0.5 mM MnCl2, 0.1 mM sodium ortho-vanadate, 1.0 mM dithiothreitol, 0.01% NP40, protease inhibitor mixture (“Complete w/o EDTA” from Roche, 1 tablet per 2.5 ml), 1% (v/v) dimethylsulfoxide]. The reaction was stopped by the addition of 5 μl of an aqueous buffer (25 mM Hepes/NaOH pH 7.5, 0.28% (w/v) bovine serum albumin) containing EDTA (90 mM) and the HTRF (Homogeneous Time Resolved Fluorescence) detection reagents streptavidine-XLent (0.2 μM, from Cis Biointernational, Marcoule, France) and PT66-Eu-Chelate (0.3 ng/μl; a europium-chelate labelled anti-phospho-tyrosine antibody from Perkin Elmer).
as §1

CDK2/CycE = target: T3, CDK2/CycE (Homo sapiens, UniProt P24941); assay: CDK2 HTRF Assay (assay 4); conditions: 10 μM ATP, pIC50 = −log IC50 in molar concentration
T3 construct: GST; purchased ProQinase GmbH (Freiburg, Germany); host or cells: insect cells (Sf9)
Description: CDK2/CycE-inhibitory activity of compounds of the present invention was quantified employing the CDK2/CycE HTRF assay as described in the following paragraphs.
Recombinant fusion proteins of GST and human CDK2 and of GST and human CycE, expressed in insect cells (Sf9) and purified by Glutathion-Sepharose affinity chromatography, were purchase from ProQinase GmbH (Freiburg, Germany). As substrate for the kinase reaction biotinylated peptide biotin-Ttds-YISPLKSPYKISEG (C-terminus in amid form) was used which can be purchased e.g. form the company JERINI peptide technologies (Berlin, Germany).
CDK2/CycE was incubated for 60 min at 22° C. in the presence of different concentrations of test compounds in 5 μl assay buffer [50 mM Tris/HCl pH 8.0, 10 mM MgCl2, 1.0 mM dithiothreitol, 0.1 mM sodium ortho-vanadate, 10 μM adenosine-tri-phosphate (ATP), 0.75 μM substrate, 0.01% (v/v) Nonidet-P40 (Sigma), 1% (v/v) dimethylsulfoxide]. The concentration of CDK2/CycE was adjusted depending of the activity of the enzyme lot and was chosen appropriate to have the assay in the linear range, typical concentrations were in the range of 1 ng/ml. The reaction was stopped by the addition of 5 μl of a solution of HTRF detection reagents (0.2 μM streptavidine-XLent and 3.4 nM Phospho-(Ser) CDKs Substrate Antibody [product #2324B, Cell Signalling Technology, Danvers, Mass., USA} and 4 nM Prot-A-EuK [Protein A labeled with Europium Cryptate from Cis biointernational, France, product no. 61PRAKLB]) in an aqueous EDTA-solution (100 mM EDTA, 800 mM KF, 0.2% (w/v) bovine serum albumin in 100 mM HEPES/NaOH pH 7.0).

T1 sequence (Q02763 770-1124 limits assumed): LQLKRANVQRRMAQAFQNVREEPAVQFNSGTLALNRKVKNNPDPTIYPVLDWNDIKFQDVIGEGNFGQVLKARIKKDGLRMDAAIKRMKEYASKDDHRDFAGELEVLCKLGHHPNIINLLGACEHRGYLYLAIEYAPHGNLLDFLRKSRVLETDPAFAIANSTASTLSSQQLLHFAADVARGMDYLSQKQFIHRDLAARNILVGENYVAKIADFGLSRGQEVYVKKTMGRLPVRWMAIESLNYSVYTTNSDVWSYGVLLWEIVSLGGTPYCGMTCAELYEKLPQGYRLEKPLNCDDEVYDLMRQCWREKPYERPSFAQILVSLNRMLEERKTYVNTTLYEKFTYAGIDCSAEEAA
T2 sequence (Q02763 770-1124 limits assumed): as above

| SMILES | IC50 (Tie2) | IC50 (preactivated Tie2) | IC50 (CDK2/CycE) |
| --- | --- | --- | --- |
| CCOC(=O)N=S(C)(=O)c1ccc(Nc2ncc(-c3ccc(NC(=O)Nc4cccc(C(F)(F)F)c4)cc3)c(N[C@H](C)CO)n2)cc1 (mixture of isomers) [Example 7, 1-{4-[2-({4-[(RS)-N-(Ethoxycarbonyl)-S-methylsulfonimidoyl]phenyl}amino)-4-{[(R)-2-hydroxy-1-methylethyl]amino}-pyrimidin-5-yl]-phenyl}-3-[3-(trifluoromethyl)-phenyl]urea] | < 100 nM | < 100 nM | > 10000 nM |
| CCOC(=O)N=S(C)(=O)c1cccc(Nc2ncc(-c3ccc(NC(=O)C4(c5ccccc5)CC4)cc3)c(N[C@H](C)CO)n2)c1 (mixture of isomers) [Example 9, N-{4-[2-({3-[(RS)-N-(Ethoxycarbonyl)-S-methylsulfonimidoyl]phenyl}amino)-4-{[(R)-2-hydroxy-1-methylethyl]amino}-pyrimidin-5-yl]phenyl}-1-phenylcyclopropane-carboxamide] | 100 to 1000 nM | 100 to 1000 nM | > 10000 nM |
| CCOC(=O)N=S(C)(=O)c1cccc(Nc2ncc(-c3ccc(NS(=O)(=O)c4cccc(Cl)c4Cl)c(F)c3)c(N[C@H](C)CO)n2)c1 (mixture of isomers) [Example 13, 2,3-Dichloro-N-{4-[2-({3-[(RS)-N-(ethoxycarbonyl)-S-methylsulfonimidoyl]phenyl}amino)-4-{[(R)-2-hydroxy-1-methylethyl]amino}-pyrimidin-5-yl]-2-fluorophenyl}-benzenesulfonamide] | 100 to 1000 nM | 100 to 1000 nM | > 10000 nM |
| C[C@H](CO)Nc1nc(Nc2cccc(S(C)(=N)=O)c2)ncc1-c1ccc(NC(=O)C2(c3ccccc3)CC2)cc1 (mixture of isomers) [Example 33, N-{4-[4-{[(R)-2-Hydroxy-1-methylethyl]amino}-2-({3-[(RS)-S-methylsulfonimidoyl]phenyl}amino)pyrimidin-5-yl]phenyl}-1-phenylcyclopropanecarboxamide] | < 100 nM | 100 to 1000 nM | > 10000 nM |
| C[C@H](CO)Nc1nc(Nc2cccc(S(C)(=N)=O)c2)ncc1-c1ccc(NS(=O)(=O)c2cccc(Cl)c2Cl)c(F)c1 (mixture of isomers) [Example 42, 2,3-Dichloro-N-[2-fluoro-4-(4-{[(R)-2-hydroxy-1-methylethyl]amino}-2-{[3-(RS)-(S-methylsulfonimidoyl)phenyl]amino}-pyrimidin-5-yl)phenyl]benzene-sulfonamide] | 100 to 1000 nM | < 100 nM | > 10000 nM |
| CCOC(=O)N=S(C)(=O)c1cccc(Nc2ncc(-c3ccc(NC(=O)Nc4cc(C(F)(F)F)ccc4F)c(F)c3)c(NCCN3CCN(C)CC3)n2)c1 (racemic) [Example 28, 1-{4-[2-({3-[(RS)-N-(Ethoxycarbonyl)-S-methylsulfonimidoyl]phenyl}amino)-4-{[2-(N-methyl-piperazin-4-yl)ethyl]amino}pyri-midin-5-yl]-2-fluorophenyl}-3-[2-fluoro-5-(trifluoromethyl)-phenyl]urea] | < 100 nM | 100 to 1000 nM | > 10000 nM |
| CCOC(=O)N=S(C)(=O)c1cccc(Nc2ncc(-c3ccc(NC(=O)Nc4cc(C(F)(F)F)ccc4F)c(F)c3)c(OC)n2)c1 (racemic) [Example 31, 1-{4-[2-({3-[(RS)-N-(Ethoxycarbonyl)-S-methylsulfonimidoyl]phenyl}amino)-4-(methoxy)-pyrimidin-5-yl]-2-fluorophenyl}-3-[2-fluoro-5-(trifluoromethyl)-phenyl]urea] | < 100 nM | < 100 nM | > 10000 nM |
| CS(=N)(=O)c1cccc(Nc2ncc(-c3ccc(NC(=O)Nc4cc(C(F)(F)F)ccc4F)c(F)c3)c(NCCCN3CCOCC3)n2)c1 (racemic) [Example 43, 1-[2-Fluoro-4-(2-{[3-(RS)-(S-methylsulfonimidoyl)phenyl]amino}-4-[(3-morpholin-4-ylpropyl)amino]-pyrimidin-5-yl)phenyl]-3-[2-fluoro-5-(trifluoromethyl)-phenyl]urea] | < 100 nM | < 100 nM | > 10000 nM |
| COc1nc(Nc2cccc(S(C)(=N)=O)c2)ncc1-c1ccc(NC(=O)Nc2cc(C(F)(F)F)ccc2F)c(F)c1 (racemic) [Example 45, 1-[2-Fluoro-4-(4-methoxy-2-{[3-(RS)-(S-methylsulfon-imidoyl)phenyl]-amino}pyrimidin-5-yl)phenyl]-3-[2-fluoro-5-(trifluoromethyl)phenyl]urea] | < 100 nM | < 100 nM | > 10000 nM |
| COc1nc(Nc2cccc(S(C)(=N)=O)c2)ncc1-c1ccc(NS(=O)(=O)c2cccc(Cl)c2Cl)c(F)c1 (racemic) [Example 46, 2,3-Dichloro-N-[2-fluoro-4-(4-methoxy-2-{[3-(RS)-(S-methylsulfonimidoyl)phenyl]amino}pyrimi-din-5-yl)phenyl]benzenesul-fonamide] | 100 to 1000 nM | 100 to 1000 nM | > 10000 nM |
| CNc1nc(Nc2cccc(S(C)(=N)=O)c2)ncc1-c1ccc(NC(=O)Nc2cc(C(F)(F)F)ccc2F)c(F)c1 (racemic) [Example 49, 1-{2-Fluoro-4-[4-(methylamino)-2-{[3-(RS)-(S-methylsulfonimidoyl)phenyl]amino}-pyrimidin-5-yl]phenyl}-3-[2-fluoro-5-(trifluoromethyl)-phenyl]urea] | < 100 nM | < 100 nM | > 10000 nM |
